According to article PMC12661400, “Oral bioavailable ITRI-148 degrades androgen receptor variants and overcomes antiandrogen resistance in advanced prostate cancer” (Neoplasia (New York, N.Y.), 2025):
Changes are numbered by the printed parent chain.

Tests used:
AR(H875Y) = target: T1, AR(H875Y) (Homo sapiens, UniProt P10275, H875Y); test: Degradation of ectopic Myc-tagged AR mutant in DU145 cells (western blot); assay type: cell-based; conditions: 10 μM, 24 hours
T1 construct: expressed in transfected cells; host or cells: DU145
T1 sequence (P10275 1-920 H875Y): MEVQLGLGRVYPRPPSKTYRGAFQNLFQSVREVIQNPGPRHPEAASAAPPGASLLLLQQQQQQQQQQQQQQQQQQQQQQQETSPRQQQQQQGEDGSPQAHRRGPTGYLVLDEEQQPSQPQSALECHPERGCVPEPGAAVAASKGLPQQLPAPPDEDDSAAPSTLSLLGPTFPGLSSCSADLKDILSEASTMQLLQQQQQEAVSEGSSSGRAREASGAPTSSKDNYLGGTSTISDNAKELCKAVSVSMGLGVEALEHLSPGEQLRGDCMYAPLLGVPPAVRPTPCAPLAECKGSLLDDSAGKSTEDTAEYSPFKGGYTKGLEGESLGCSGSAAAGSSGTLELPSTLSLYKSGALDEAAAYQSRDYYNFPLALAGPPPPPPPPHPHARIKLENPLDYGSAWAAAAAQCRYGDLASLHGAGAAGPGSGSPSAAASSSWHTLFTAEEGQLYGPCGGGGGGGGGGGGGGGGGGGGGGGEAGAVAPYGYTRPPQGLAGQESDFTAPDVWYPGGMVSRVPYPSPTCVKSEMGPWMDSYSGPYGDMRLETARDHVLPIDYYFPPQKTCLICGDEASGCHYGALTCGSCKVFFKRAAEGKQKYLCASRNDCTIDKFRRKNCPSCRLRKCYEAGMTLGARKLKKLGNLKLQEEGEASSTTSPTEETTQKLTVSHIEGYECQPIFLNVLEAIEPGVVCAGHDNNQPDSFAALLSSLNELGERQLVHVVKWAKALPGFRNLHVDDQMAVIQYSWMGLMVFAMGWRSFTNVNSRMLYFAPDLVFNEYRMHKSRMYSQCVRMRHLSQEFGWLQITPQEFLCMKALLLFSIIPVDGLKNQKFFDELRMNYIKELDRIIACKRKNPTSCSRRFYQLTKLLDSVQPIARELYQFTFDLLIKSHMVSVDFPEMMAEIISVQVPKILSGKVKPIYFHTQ
From the text: (§1) pLenti4/TO/Flag-AR and pLenti4/TO/Flag-AR(∆LBD) plasmids are as described previously. To generate pLenti4/TO/Flag-AR-V7 plasmid, the DNA fragment of AR-V7 was amplified from pEGFP-C1-AR V7, a gift from Michael A Mancini (Addgene plasmid # 86856), and inserted into the pLenti4/TO plasmid carrying a N-terminal Flag tag between BamH1 and XhoI. The AR(L702H) and AR(H875Y) mutants were generated by site-directed mutagenesis of pCMV-Myc-AR, which is previously constructed and described in [22]. Primers used in the cloning and mutagenesis are: […]
(§2) Cell lysis, Western blotting, and AR ubiquitination were performed as described in [17]. […]
(§3) Fig. 1 ITRI-148 induces degradation of both AR and AR-V7 proteins in CRPC cells. […] AR-V7 expression was detected using an anti-Flag antibody. […] An N-terminal AR antibody was used to detect both full-length AR and LBD-truncated variants (AR-V(ΔLBD)) in CWR22Rv1 cells, while AR-V7 was detected using an AR-V7-specific antibody. DC₅₀ values were calculated from normalized band intensities, and Dₘₐₓ represents the maximal degradation achieved at 10 μM ITRI-148. (D) Immunofluorescence staining of AR after 24 or 48 hours of ITRI-148 treatment, detected using an N-terminal AR antibody. […] Quantified AR levels are as indicated. […]

AR(L702H) = target: T2, AR(L702H) (Homo sapiens, UniProt P10275, L702H); test: as above; assay type: cell-based; conditions: 10 μM, 24 hours
T2 construct: expressed in transfected cells; host or cells: DU145
T2 sequence (P10275 1-920 L702H): T1 sequence (P10275 1-920 H875Y) with L702H, Y875H
From the text: as §1, §2, §3

O=C1CCC(N2C(=O)c3cccc(NCC(=O)N4CCC(N5CCC(C#Cc6ccc(C7CCN(C8=Nn9c(nnc9C(F)(F)F)CC8)CC7)cc6)CC5)CC4)c3C2=O)C(=O)N1 (centres unmarked) [ITRI-148]
degradation of Myc-tagged AR mutant H875Y (AR(H875Y)): degraded
degradation of Myc-tagged AR mutant L702H (AR(L702H)): degraded
